# Test system: 171881-019-R-J1-PDC tumor spheroid viability
# Assay: Anticancer human tumor 171881-019-R-J1-PDC patient-derived invasive breast carcinoma cell line growth inhibition [PI3K]
# Conditions: spheroids with HUVEC and MSC; for IC50: curve of first compound; for viability, T/C: stronger effect = lower value
# Description: Combinatorial screen of targeted agents with the PI3K inhibitors inavolisib, alpelisib, duvelisib, and copanlisib in multi-cell type tumor spheroids
# A high-throughput screen of multi-cell type tumor spheroids was designed to identify active combinations of targeted small molecules and PI3K pathway inhibitors. Complex spheroids include a stromal component modeled by human endothelial cells (HUVEC) and fibroblasts modeled by human mesenchymal stem cells (MSCs). The concentration ranges selected for each drug and investigational agent were based upon clinically achievable concentrations if the clinical Cmax of the agent was known.
# Compounds. The drugs and investigational agents: inavolisib (NSC800729), alpelisib (NSC765974), duvelisib (NSC772469), copanlisib (NSC816437), ipatasertib (NSC767898), afuresertib (NSC778305), talazoparib (NSC767125), sapanisertib (NSC764658), selumetinib (NSC741078), tovorafenib (DAY101, NSC766906), vemurafenib (NSC761431), ravoxertinib (NSC781343), sotorasib (NSC818433), MRTX1133 (NSC 836407), abemaciclib (NSC 768073), palbociclib (NSC758247), venetoclax (NSC 766270), SY5609 (NSC837396), enzalutamide (NSC755605), and darolutamide (NSC825331), were obtained from the National Cancer Institute (NCI) Developmental Therapeutics Program Chemical Repository. The FDA-approved anticancer drug set is available from the NCI Developmental Therapeutics Program. […] The stock solutions were prepared in dimethyl sulfoxide (DMSO, Sigma-Aldrich, St. Louis, MO, cat. D2650) at 800-fold the tested concentration and stored at -70 degrees C prior to their use. All drugs and investigational agents were tested over a range starting from a high concentration at or near the clinical Cmax and decreasing in half-log increments. If the clinical Cmax for an agent had not been determined, the highest concentration tested was 10 microM.
# Cell Culture. All cells were maintained in an incubator at 37 degrees C and 5% CO2 with 95% humidity. The PDC lines were cultured according to standard operating procedures established by the NCI PDMR (https://pdmr.cancer.gov/sops/default.htm). All PDCs were thawed and cultured in Matrigel-coated flasks prepared with a working solution of 1X Ham's F-12 nutrient mix, without supplementation (Invitrogen, Waltham, MA, cat. 11765054), 100 U/mL penicillin-streptomycin (Invitrogen, cat. 15140122), and 2.5% Matrigel (Corning Inc., Corning, NY, cat. 354248) for the first three passages. The 354836-022-R-J1-PDC, 475296-252-R-J1-PDC, and 997726-040-R-J2-PDC lines were cultured in 6A media, which includes advanced DMEM/F-12 (Thermo Fisher Scientific, cat. 12634028), 10 mM HEPES (Thermo Fisher Scientific, cat. 15630080), 1X GlutaMAX supplement (Thermo Fisher Scientific, cat. 35050061), 0.1 mg/mL primocin (InvivoGen, San Diego, CA, cat. ant-pm-2), 10% defined fetal bovine serum, heat inactivated (HyClone Laboratories Inc., Logan, UT, cat. SH30070.03HI), 50% L-WRN conditioned media (ATCC, cat. CRL-3276), 1.25 mM N-Acetyl-L-cysteine (Sigma-Aldrich, cat. A9165), 10 mM nicotinamide (Sigma-Aldrich, cat. N0636), 1X B-27 supplement (Thermo Fisher Scientific, cat. 17504044), 1X N-2 supplement (Thermo Fisher Scientific, cat. 17502048), and 10 microM Y-27632 dihydrochloride (Tocris Bioscience, Bristol, United Kingdom, cat. 1254). The 624824-186-R-J2-PDC line was cultured in 6C/Colon 1B media, which includes all 6A media components plus 50 ng/mL human EGF recombinant protein (Thermo Fisher Scientific, cat. PHG0311). […]
# [1] = second compound 0.0316 µM, first compound 0.0316 µM
# [2] = second compound 0.0316 µM, first compound 0.1 µM
# [3] = second compound 0.0316 µM, first compound 0.316 µM
# [4] = second compound 0.0316 µM, first compound 1 µM
# [5] = second compound 0.0316 µM, first compound 3.16 µM
# [6] = second compound 0.0316 µM, first compound 10 µM
# [7] = second compound 0.1 µM, first compound 0.0316 µM
# [8] = second compound 0.1 µM, first compound 0.1 µM
# [9] = second compound 0.1 µM, first compound 0.316 µM
# [10] = second compound 0.1 µM, first compound 1 µM
# [11] = second compound 0.1 µM, first compound 3.16 µM
# [12] = second compound 0.1 µM, first compound 10 µM
# [13] = second compound 0.316 µM, first compound 0.0316 µM
# [14] = second compound 0.316 µM, first compound 0.1 µM
# [15] = second compound 0.316 µM, first compound 0.316 µM
# [16] = second compound 0.316 µM, first compound 1 µM
# [17] = second compound 0.316 µM, first compound 3.16 µM
# [18] = second compound 0.316 µM, first compound 10 µM
# [19] = second compound 1 µM, first compound 0.0316 µM
# [20] = second compound 1 µM, first compound 0.1 µM
# [21] = second compound 1 µM, first compound 0.316 µM
# [22] = second compound 1 µM, first compound 1 µM
# [23] = second compound 1 µM, first compound 3.16 µM
# [24] = second compound 1 µM, first compound 10 µM
# 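Further: spheroids exposed to compound for 7 days before viability read.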
# 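Wherever viability, T/C is given: 100% = DMSO vehicle-treated spheroids.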
smiles,measurement,setting,value
C[C@@H](NC(=O)c1ncnc(N)c1Cl)c1ncc(C(=O)Nc2cc(C(F)(F)F)c(Cl)cn2)s1 + Cc1nc(NC(=O)N2CCCC2C(N)=O)sc1-c1ccnc(C(C)(C)C(F)(F)F)c1,IC50,second compound 0.0316 µM,6.1 µM
same,IC50,second compound 0.1 µM,3 µM
same,IC50,second compound 0.316 µM,0.555 µM
same,IC50,second compound 1 µM,< 0.0316 µM
same,IC50,second compound 3.16 µM,< 0.0316 µM
same,IC50,second compound 10 µM,< 0.0316 µM
same,"viability, T/C",[1],92.6%
same,"viability, T/C",[2],83.5%
same,"viability, T/C",[3],84.8%
same,"viability, T/C",[4],79.5%
same,"viability, T/C",[5],65%
same,"viability, T/C",[6],38.7%
same,"viability, T/C",[7],86.2%
same,"viability, T/C",[8],82.2%
same,"viability, T/C",[9],77.9%
same,"viability, T/C",[10],65.9%
same,"viability, T/C",[11],49.2%
same,"viability, T/C",[12],30.7%
same,"viability, T/C",[13],55.3%
same,"viability, T/C",[14],56.6%
same,"viability, T/C",[15],51.8%
same,"viability, T/C",[16],47.3%
same,"viability, T/C",[17],31.9%
same,"viability, T/C",[18],17.5%
same,"viability, T/C",[19],32.7%
same,"viability, T/C",[20],33.3%
same,"viability, T/C",[21],31.1%
same,"viability, T/C",[22],24.5%
same,"viability, T/C",[23],17.3%
same,"viability, T/C",[24],7.53%
same,"viability, T/C","second compound 3.16 µM, first compound 0.0316 µM",16.2%
same,"viability, T/C","second compound 3.16 µM, first compound 0.1 µM",15.2%
same,"viability, T/C","second compound 3.16 µM, first compound 0.316 µM",12.5%
same,"viability, T/C","second compound 3.16 µM, first compound 1 µM",10.3%
same,"viability, T/C","second compound 3.16 µM, first compound 3.16 µM",5.29%
same,"viability, T/C","second compound 3.16 µM, first compound 10 µM",2.14%
same,"viability, T/C","second compound 10 µM, first compound 0.0316 µM",4.03%
same,"viability, T/C","second compound 10 µM, first compound 0.1 µM",3.76%
same,"viability, T/C","second compound 10 µM, first compound 0.316 µM",3.28%
same,"viability, T/C","second compound 10 µM, first compound 1 µM",2.32%
same,"viability, T/C","second compound 10 µM, first compound 3.16 µM",1.29%
same,"viability, T/C","second compound 10 µM, first compound 10 µM",0.49%
C=CC(=O)N1CCN(c2nc(=O)n(-c3c(C)ccnc3C(C)C)c3nc(-c4c(O)cccc4F)c(F)cc23)C(C)C1 (centres undefined) + CC(Nc1ccc2c(c1)OCCn1cc(N3C(=O)OCC3C(F)F)nc1-2)C(N)=O,IC50,second compound 0.00316 µM,9.11 µM
same,IC50,second compound 0.01 µM,7.32 µM
same,IC50,second compound 0.0316 µM,3.97 µM
same,IC50,second compound 0.1 µM,< 0.0316 µM
same,IC50,second compound 0.316 µM,< 0.0316 µM
same,IC50,second compound 1 µM,< 0.0316 µM
same,"viability, T/C","second compound 0.00316 µM, first compound 0.0316 µM",96.8%
same,"viability, T/C","second compound 0.00316 µM, first compound 0.1 µM",90.1%
same,"viability, T/C","second compound 0.00316 µM, first compound 0.316 µM",92.8%
same,"viability, T/C","second compound 0.00316 µM, first compound 1 µM",93.1%
same,"viability, T/C","second compound 0.00316 µM, first compound 3.16 µM",88.5%
same,"viability, T/C","second compound 0.00316 µM, first compound 10 µM",46.6%
same,"viability, T/C","second compound 0.01 µM, first compound 0.0316 µM",79.5%
same,"viability, T/C","second compound 0.01 µM, first compound 0.1 µM",84.9%
same,"viability, T/C","second compound 0.01 µM, first compound 0.316 µM",78.5%
same,"viability, T/C","second compound 0.01 µM, first compound 1 µM",84.6%
same,"viability, T/C","second compound 0.01 µM, first compound 3.16 µM",79%
same,"viability, T/C","second compound 0.01 µM, first compound 10 µM",39.1%
same,"viability, T/C",[1],52.7%
same,"viability, T/C",[2],56.2%
same,"viability, T/C",[3],52.1%
same,"viability, T/C",[4],57.7%
same,"viability, T/C",[5],54.7%
same,"viability, T/C",[6],31.7%
same,"viability, T/C",[7],37.6%
same,"viability, T/C",[8],37.8%
same,"viability, T/C",[9],40.2%
same,"viability, T/C",[10],36.3%
same,"viability, T/C",[11],39.2%
same,"viability, T/C",[12],22.1%
same,"viability, T/C",[13],26.1%
same,"viability, T/C",[14],29.2%
same,"viability, T/C",[15],27.8%
same,"viability, T/C",[16],30%
same,"viability, T/C",[17],26.7%
same,"viability, T/C",[18],12.6%
same,"viability, T/C",[19],20.2%
same,"viability, T/C",[20],21.7%
same,"viability, T/C",[21],20.7%
same,"viability, T/C",[22],22.6%
same,"viability, T/C",[23],20.7%
same,"viability, T/C",[24],10.7%
